Data taken from ChEMBL document CHEMBL3507680, “University of Dundee, Gates Library screen for HepG2 cell viability”.

Test: Human HepG2 cell viability assay in 384 well format
Assay type: toxicity, cell-based
Set-up: dose 125 nL, time 70.5 hour; concentration not given beside the values
Conditions: HepG2 cells, read-out: Inhibition

SMILES	cytotoxicity at 70.5 h [%]
Cc1nc2c(c(=O)n1C)CN(C(=O)C1CCCN(C3CCCC3)C1)C2 (stereo unspecified)	6.1
CCn1c(-c2ccccc2)nn(CC(=O)NCCc2c[nH]cn2)c1=O	28.4
CN(C)C(C(=O)N1CCN(C(=O)c2ccc[nH]2)CC1)c1ccc(F)cc1 (stereo unspecified)	9.68
CCCc1nnc(N2CCC(C3CCN(C)CC3)CC2)o1	9.11
Cc1nc(-n2cnnc2)ccc1-c1cccc2c1CCNC2	6.99
Cc1nc(CCNc2nc(N(C)C)nc3c2CCCC3)cc(=O)[nH]1	-10.9
CN(C)Cc1nnc(C(=O)N(C)Cc2ccc(C(F)(F)F)cc2)o1	-1.19
O=C(O)C1c2nc[nH]c2CCN1CC(c1ccccc1)c1ccccc1 (stereo unspecified)	-3.04
CN1CC2(CCN(C(=O)c3ccc(-n4cnnc4)cc3Cl)CC2)OC1=O	-4.9
COc1ccccc1C1CNC(=O)c2nc(-c3nccn3C)[nH]c2C1 (stereo unspecified)	5.33
N[C@H]1CN(S(=O)(=O)c2ccccc2)C[C@@H]1C1CC1	17.3
O=C(CCN1C[C@@H]2CC[C@H]1C2)N1CCN(c2cccc(Cl)c2)C(=O)C1	-0.743
Cc1cc(CNc2ccc(-c3nc(C4CC4)no3)cn2)no1	-4.31
COc1ccc(F)c(-c2cc(C)nc(N)n2)c1	-7.05
O=C1CC2(CCN(Cc3ccc(-c4ccccc4)s3)C2)C(=O)N1 (stereo unspecified)	-3.29
OC1(CN2CCCC2)CCCN(Cc2cnc(-c3ccco3)nc2)C1 (stereo unspecified)	2.98
COCCC1CCN(CC(C)n2cnc3ccccc32)CC1 (stereo unspecified)	-17.3
Cc1nn(C)c(C)c1CCC(=O)N1CC(c2cccnc2)C1	0.0861
CC(=O)Nc1ccc(Oc2cccc(CN3CCCC3)c2)cc1	-1.93
Cc1ccoc1C(=O)N1CCNCC1C(=O)NCc1ccncc1 (stereo unspecified)	3.11
O=C(N[C@H]1CN(C2CCOCC2)C[C@@H]1C1CC1)c1ccon1	-4.68
O=C(NCc1nc[nH]n1)c1cc(COc2cccc(C(F)(F)F)c2)[nH]n1	21.3
c1ccc2c(c1)CCN(c1ncnc3sc4c(c13)CCNC4)C2	-2.21

SMILES	cytotoxicity at 70.5 h [%]
CN1CCCC(CCC(=O)N2CCc3sc(C(=O)N(C)C)cc3C2)C1 (stereo unspecified)	-5.77
Cn1cc(C(=O)N2CCCN(C3Cc4ccccc4C3)CC2)cn1	-13.8
CCN(CCO)C(=O)c1cc(Cn2c(C)nc3ccccc32)[nH]n1	-9.25
Cc1nc(-c2cn(CCN)nn2)n(-c2ccc(C(F)(F)F)cc2)n1	5.79
Nc1cc(C(=O)NCC2CCN(CCc3ccccc3)C2)ccn1 (stereo unspecified)	-6.39
CNC(=O)[C@@H]1C[C@@H](n2cc(-c3ccc(CN4CC=CC4)cc3)nn2)CN1	-9.45
Cc1cnc(NCC(C)(C)N2CCOCC2)nc1	-4.82
COc1cccc(-c2n[nH]cc2C(=O)NC(C)c2nc(C(C)C)no2)c1 (stereo unspecified)	-8.56
CC(C)(C)CN1CCCC2(CCN(C(=O)c3ccc(O)nc3)C2)C1 (stereo unspecified)	-7.83
Cc1cc(-c2nn(C)c(Cl)c2CN2CCOCC2CC(N)=O)no1 (stereo unspecified)	6.65
CC(=O)NCC1CCN(c2cc(C(C)C)nc3ccnn23)CC1	-9.59
Cc1cc(C(=O)N2CCOC(c3ccc(Cl)c(Cl)c3)C2)[nH]n1 (stereo unspecified)	-8.67
N[C@@H](Cc1c[nH]cn1)C(=O)N1CCC(Oc2ccc(F)cc2)CC1	-4.52
CCn1nc(C)c(CCN2CC3(CCOC3)CCC2=O)c1C (stereo unspecified)	25.5
Cc1ccccc1N1CCCN(c2ccncn2)CC1	2.64
Cc1nccn1Cc1nnc(C2CCCN(c3cnccn3)C2)n1C (stereo unspecified)	-18.6
COc1ccc(/C=C/CN2CCC3(C2)CN(C)C(=O)O3)cc1 (stereo unspecified)	-6.62
O=C(Cc1cccs1)N1C[C@@H]2CC[C@H](C1)N(Cc1ccccn1)C2=O	-10.5
O=C(Nc1cccc(-c2cscn2)c1)N1CCC2(CC1)CC(O)CO2 (stereo unspecified)	-11.6
COc1cccc(CN(C)Cc2nc3cc(C)ccc3[nH]2)c1O	-2.34
CS(=O)(=O)c1ccc(NC(=O)N2C[C@H](O)[C@@H](N3CCOCC3)C2)cc1	20.5
CCCc1cc(C(=O)N2C[C@@H](C)[C@](O)(C3CCC3)C2)[nH]n1	8.19
CN(C)C[C@@H]1CN(C(=O)c2cc(-c3ccccc3)n[nH]2)C[C@@H]1CO	16.6

SMILES	cytotoxicity at 70.5 h [%]
Cc1cc(CN(C)CCC(O)c2ccccc2)nn1C (stereo unspecified)	-2.1
CCCn1cnnc1CNCc1c[nH]nc1-c1ccc(F)cc1	-1.41
Cc1csc2c(N3CCNC(C(=O)NCc4cccnc4)C3)ncnc12 (stereo unspecified)	18.9
Cc1nc[nH]c1CN1CCn2nc(CN3CC[C@H](F)C3)cc2C1	-8.01
COc1ccc2c(c1)OCC(C(=O)NCc1ncc3c(n1)CCC3)C2 (stereo unspecified)	-8.14
Cn1nc2c(c1NC(=O)c1ccc(C3CCCN3C3CCC3)s1)CCC2 (stereo unspecified)	-6.85
Cc1cccnc1CN1CCN(C(=O)c2ccn(C(C)(C)C)c2)CC1	40.4
COc1ccc(-c2ccccc2CN)c(OC)c1	21.8
COc1ccc(F)c(-c2ccnc(N)c2)c1	-14.3
CN(C)CCn1ccnc1C1CCN(c2cc(N)nc(N)n2)CC1	-6.61
CCc1nc(CCn2ccc3nc(OC)c(C#N)cc3c2=O)no1	-4.1
CCCS(=O)(=O)N1CCCC(c2cccc(C(=O)O)c2)C1 (stereo unspecified)	-9.39
CCC[C@@H]1CN(C(=O)c2cnc3ccccc3c2)C[C@H]1NS(C)(=O)=O	-1.26
O=C(NCc1nc(NC2CCCC2)c2cc(Cl)ccc2n1)c1cncs1	-13.7
COCCCN(C)c1nc(-c2ccncc2)nc2c1CCN(C(C)=O)C2	-7.86
CCn1cncc1CNc1ccc(-c2nc(CC(C)C)no2)cn1	2.85
CN1CCc2[nH]cnc2C12CCN(C(=O)c1noc3c1CCCC3)CC2	-10.9
CN1CCC(N(CCc2ccccc2)C(=O)c2ccc(C#N)nc2)CC1	-3.27
Cc1cccc(-c2ncc(CNC(C)Cc3ncccc3C)cn2)c1 (stereo unspecified)	48.7
Cc1noc(-c2ccnc(N3CCN(C4CCOCC4)CC3)c2)n1	10.1
Cc1ccccc1-c1cccc(CN2C[C@H]3C(=O)NC[C@@]3(C(=O)O)C2)c1	12.4
O=C1NC[C@@]2(C(=O)O)CN(Cc3cccc(OC4CCCC4)c3)C[C@@H]12	-3
Cc1ccccc1N1CCN(C(=O)Cn2ccnc2)CC1=O	14.2

SMILES	cytotoxicity at 70.5 h [%]
Cc1ccc(Cl)c(CN2CCC3(CC2)C(C(=O)O)CC(=O)N3C)c1F (stereo unspecified)	-5.82
O=C(CC[C@@H]1CCCN2CCCC[C@H]12)N1CCC(c2nnc[nH]2)CC1	-7.68
COc1ccc(CCN2C(=O)O[C@@H]3CN(C4CCOCC4)C[C@@H]32)cc1	5.89
O=C(NC1CCN(C2CC2)CC1)N1CCN(c2cnccn2)CC1	3.56
Cc1ccc(-c2cc(CNC(=O)N3CCC(N(C)C)CC3)on2)cc1	4.4
CC(C)N1CCN(C(=O)Nc2cnc3c(cnn3C(C)C)c2)CC1	1.68
Cc1nc(CNC(=O)NCC(O)c2ccccc2)cs1 (stereo unspecified)	-2.52
CC(C)C(C(=O)N1CCN(c2nccs2)CC1)n1cncn1 (stereo unspecified)	0.606
CC(C)n1ncc2cc(NC(=O)N3CCC(CO)CC3)cnc21	3.41
CC(=O)N1CCC(NC(=O)N2CCN(c3cnccn3)CC2)CC1	1.14
CCc1nc(C2CCCN(C(=O)c3ccccc3Cl)C2)no1 (stereo unspecified)	-1.75
COc1c(C2CCCN2CC(=O)Nc2cccnc2)c(C)nn1C (stereo unspecified)	-6.38
Cc1nc(C2CCCN2CC(=O)N(C)Cc2ccsc2)no1 (stereo unspecified)	12.6
Cc1nc(C2CCCN2CC(=O)NCCc2ccc(Cl)cc2)no1 (stereo unspecified)	-2.31
Cc1nc(CN(C)C2CCN(CC3CCCC3)C2)no1 (stereo unspecified)	-1.44
CC(=O)c1cccc(NC(=O)CCn2nc(-c3cccs3)oc2=O)c1	-18.2
CC(=O)c1cccc(NC(=O)Cn2nc(-c3cccs3)oc2=O)c1	10.5
O=C(C1CCN(Cc2nc(-c3ccco3)no2)CC1)N1CCCC1	-4.18
COc1ncccc1C(=O)NC1CCOc2ccccc21 (stereo unspecified)	-6.62
CCOc1cc(C(=O)NS(=O)(=O)c2cccc(C#N)c2)ccc1OC	-10
CC(C(=O)N1CCOCC1)N1CCN(Cc2nccn2C)CC1 (stereo unspecified)	-2.07
Cc1nccn1C1CCCN(C(=O)c2ccc3c(c2)nc(C)n3C)C1 (stereo unspecified)	-3.08
NC(=O)c1ccc(C(=O)N2CCCCC2Cn2cccn2)s1 (stereo unspecified)	19.1

SMILES	cytotoxicity at 70.5 h [%]
CCc1nc(C2CCCN2C(=O)CCc2nc(C3CC3)no2)no1 (stereo unspecified)	-1.64
CC(=O)N(Cc1noc(C2CC2)n1)C1CCN(CC(=O)NC2CC2)C1 (stereo unspecified)	-7.63
CC(=O)N(Cc1noc(C2CC2)n1)C1CCN(Cc2cc(C)on2)C1 (stereo unspecified)	-3.51
O=C(c1cc2c(s1)CCCC2)N1CCCC1Cn1cccn1 (stereo unspecified)	-4.37
COCCCN1CCC(N(Cc2noc(C)n2)C(C)=O)C1 (stereo unspecified)	-5.67
c1cnn(CC2CN(Cc3nnc(C4CC4)o3)CCO2)c1 (stereo unspecified)	-4.26
CCc1nc(C2CCCN2C(=O)CCc2nc(C(C)(C)C)no2)no1 (stereo unspecified)	15.3
Cc1nnc2n1CCN(Cc1csc(-c3ncccn3)n1)C2	39.4
CCc1nnc2n1CCN(Cc1csc(Cc3ccccc3)n1)C2	15.5
CCOc1ccc(CN2CCN(C(=O)c3cc(C4CC4)[nH]n3)CC2)cc1	-2.02
CC(C)c1ccc(CN2CCN(C(=O)c3cc(C4CC4)[nH]n3)CC2)cc1	44.7
CC(C)c1noc(CN2CCN(C(=O)c3cccnc3O)CC2)n1	-3.73
O=C(CN1CCN(c2nccs2)CC1)Nc1cccnc1	-7.83
NC(=O)C1CN(C(=O)Nc2ccc(SC(F)(F)F)cc2)CCO1 (stereo unspecified)	-10.3
Cc1ccccc1NC1CCN(C(=O)CCc2ccco2)CC1	1.41
NC(=O)C1CN(C(=O)Nc2ccccc2OCC(F)(F)F)CCO1 (stereo unspecified)	-4.53
c1ccc2oc(N3CCCC3Cn3cncn3)nc2c1 (stereo unspecified)	-3.56
Cc1nc(C)n(CC2CCCN2CCCc2nc3ccccc3o2)n1 (stereo unspecified)	-5.85
NC(=O)COc1ccc(C(=O)N2CCCC(n3ccnc3)C2)cc1 (stereo unspecified)	-3
